What was measured:
[1] = tested on: Enterobacteriaceae; assay: Potentiation of cefepime-induced antibacterial activity against carbapenem-resistant Enterobacteriaceae assessed as cefepime MIC50 at 8 ug/ml by broth microdilution method (Rvb > 32 ug/ml); assay type: functional
[2] = tested on: Klebsiella pneumoniae; assay: (§1) Potentiation of meropenem-induced bacteriostatic activity against carbapenem-resistant Klebsiella pneumoniae KP1244 harboring KPC-3, SHV-11, and SHV-12 infected in Swiss-Webster mouse model of neutropenic thigh infection assessed as log change in bacterial count in thigh at 10 mg/kg, ip administered at 2 hrs interval for 24 hrs starting from 2 hr post infection and measured post last dose (reference value: 0.62 log10CFU); assay type: functional
[3] = Clearance in rat at 10 mg/kg, iv administered as infusion for 0.5 hrs by HPLC/MS analysis; assay type: ADME, organism-based; conditions: in vivo
[4] = tested on: Escherichia coli; assay: Inhibition of Escherichia coli ECM6619 TEM-10 assessed as minimum concentration of compound needed to reduce the MIC of aztreonam to 4 ug/ml
[5] = AUC in rat at 10 mg/kg, iv administered as infusion for 0.5 hrs by HPLC/MS analysis; assay type: ADME, organism-based; conditions: in vivo
[6] = Half life in rat at 10 mg/kg, iv administered as infusion for 0.5 hrs by HPLC/MS analysis; assay type: ADME, organism-based; conditions: in vivo
[7] = tested on: Klebsiella pneumoniae; assay: Inhibition of Klebsiella pneumoniae KP1160 IMP-26 assessed as minimum concentration of compound needed to reduce the MIC of meropenem to 1 ug/ml
[8] = tested on: Enterobacterales; assay: Potentiation of meropenem-induced antibacterial activity against Enterobacterales assessed as meropenem MIC90 at 8 ug/ml by broth microdilution method (Rvb > 32 ug/ml); assay type: functional
[9] = biological target: Prothrombin (Homo sapiens, UniProt P00734); assay: Inhibition of mammalian thrombin (unknown origin) using Benz-FVR-AMC as substrate preincubated for 10 mins followed by substrate addition measured after 30 mins
[10] = Inhibition of mammalian elastase (unknown origin) using Suc-AAPA-pNA as substrate preincubated for 10 mins followed by substrate addition measured after 30 mins; set-up: species or system Homo sapiens
[11] = biological target: Urokinase-type plasminogen activator (Homo sapiens, UniProt P00749); assay: Inhibition of mammalian urokinase (unknown origin) using NGK-pNA as substrate preincubated for 10 mins followed by substrate addition measured after 30 mins
[12] = tested on: Enterobacterales; assay: Potentiation of meropenem-induced antibacterial activity against Enterobacterales assessed as meropenem MIC50 at 8 ug/ml by broth microdilution method (reference value: 1 ug/ml); assay type: functional
[13] = tested on: Klebsiella pneumoniae; assay: as §1, with “at 5” for “at 10”; assay type: functional
[14] = Clearance in rat at 100 mg/kg, iv administered as infusion for 0.5 hrs by HPLC/MS analysis; assay type: ADME, organism-based; conditions: in vivo
[15] = tested on: Enterobacteriaceae; assay: Inhibition of NDM/VIM in carbapenem-resistant Enterobacteriaceae assessed as potentiation of ceftolozane-induced antibacterial activity by measuring ceftolozane MIC90 at 8 ug/ml by broth microdilution method (Rvb > 32 ug/ml)
[16] = Inhibition of recombinant Escherichia coli CTX-M-14 using nitrocefin as substrate preincubated for 10 mins followed by substrate addition measured every 10 secs for 10 mins by spectrophotometrically analysis
[17] = Cmax in rat at 100 mg/kg, iv administered as infusion for 0.5 hrs by HPLC/MS analysis; assay type: ADME, organism-based; set-up: dose 100 mg/kg, route intravenous; conditions: in vivo
[18] = Cmax in rat at 100 mg/kg, po administered via gavage by HPLC/MS analysis; assay type: ADME, organism-based; set-up: dose 100 mg/kg, route oral; conditions: in vivo
[19] = tested on: Enterobacteriaceae; assay: Potentiation of meropenem-induced antibacterial activity against carbapenem-resistant Enterobacteriaceae assessed as meropenem MIC50 at 8 ug/ml by broth microdilution method (reference value: 8 ug/ml); assay type: functional
[20] = tested on: Klebsiella pneumoniae; assay: Potentiation of meropenem-induced antibacterial activity in Klebsiella pneumoniae KP1244 by measuring meropenem MIC at 8 ug/ml by broth microdilution method (Rvb >64 ug/ml); assay type: functional
[21] = Clearance in rat at 100 mg/kg, po administered via gavage by HPLC/MS analysis; assay type: ADME, organism-based; conditions: in vivo
[22] = tested on: Enterobacteriaceae; assay: Inhibition of OXA-48 in carbapenem-resistant Enterobacteriaceae assessed as potentiation of cefepime-induced antibacterial activity by measuring cefepime MIC90 at 8 ug/ml by broth microdilution method (Rvb > 32 ug/ml)
[23] = tested on: Klebsiella pneumoniae; assay: Potentiation of ceftolozane-induced antibacterial activity against carbapenem-resistant Klebsiella pneumoniae assessed as ceftolozane MIC90 at 8 ug/ml by broth microdilution method (Rvb > 32 ug/ml); assay type: functional
[24] = biological target: BlaVIM-1 (Escherichia coli, UniProt Q8GDC1); assay: Inhibition of recombinant Escherichia coli VIM-1 using nitrocefin as substrate preincubated for 10 mins followed by substrate addition measured every 10 secs for 10 mins by spectrophotometrically analysis
[25] = tested on: Enterobacteriaceae; assay: Inhibition of NDM/VIM in carbapenem-resistant Enterobacteriaceae assessed as potentiation of meropenem-induced antibacterial activity by measuring meropenem MIC90 at 8 ug/ml by broth microdilution method (Rvb > 32 ug/ml)
[26] = Protein binding in rat plasma; assay type: ADME, cell-free; conditions: read-out: PPB (converted)
[27] = AUC in rat at 1000 mg/kg, po administered via gavage by HPLC/MS analysis; assay type: ADME, organism-based; conditions: in vivo
[28] = tested on: Enterobacteriaceae; assay: Inhibition of NDM/VIM in carbapenem-resistant Enterobacteriaceae assessed as potentiation of cefepime-induced antibacterial activity by measuring cefepime MIC50 at 8 ug/ml by broth microdilution method (Rvb > 32 ug/ml)
[29] = biological target: Neutrophil elastase (Homo sapiens, UniProt P08246); assay: Inhibition of mammalian neutrophil elastase (unknown origin) using MeOSuc-AAVP-AMC as substrate preincubated for 10 mins followed by substrate addition measured after 30 mins
Chain of Neutrophil elastase (P08246 whole entry): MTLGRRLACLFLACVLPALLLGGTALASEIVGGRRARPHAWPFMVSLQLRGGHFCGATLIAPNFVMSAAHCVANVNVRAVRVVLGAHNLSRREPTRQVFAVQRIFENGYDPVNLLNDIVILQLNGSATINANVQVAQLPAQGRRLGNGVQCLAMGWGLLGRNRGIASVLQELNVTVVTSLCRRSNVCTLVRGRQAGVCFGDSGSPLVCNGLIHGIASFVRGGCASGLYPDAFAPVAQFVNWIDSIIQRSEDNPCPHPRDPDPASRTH

[30] = Oral bioavailability in rat at 100 mg/kg in fasted condition by HPLC/MS analysis; assay type: ADME, organism-based; conditions: in vivo
[31] = biological target: Beta-lactamase OXA-23 (Acinetobacter baumannii) (UniProt Q9L4P2); assay: Inhibition of Acinetobacter baumannii AB1054 OXA-23 assessed as minimum concentration of compound needed to reduce the MIC of meropenem to 8 ug/ml
Chain of Beta-lactamase OXA-23 (Acinetobacter baumannii) (Q9L4P2 whole entry): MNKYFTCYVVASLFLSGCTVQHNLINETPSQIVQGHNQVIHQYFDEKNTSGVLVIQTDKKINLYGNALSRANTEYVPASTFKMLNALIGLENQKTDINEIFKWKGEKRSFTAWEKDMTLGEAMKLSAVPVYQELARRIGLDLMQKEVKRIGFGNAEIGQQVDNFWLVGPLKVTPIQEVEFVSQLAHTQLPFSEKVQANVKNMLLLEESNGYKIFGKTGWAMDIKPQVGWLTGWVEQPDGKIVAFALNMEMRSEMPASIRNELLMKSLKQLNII

[32] = tested on: Pseudomonas aeruginosa; assay: Potentiation of meropenem-induced antibacterial activity against Pseudomonas aeruginosa assessed as meropenem MIC90 at 8 ug/ml by broth microdilution method (reference value: 16 ug/ml); assay type: functional
[33] = tested on: Klebsiella pneumoniae; assay: as §1, with “at 25” for “at 10”; assay type: functional
[34] = tested on: Escherichia coli; assay: Inhibition of Escherichia coli ECM6625 SHV-5 assessed as minimum concentration of compound needed to reduce the MIC of aztreonam to 4 ug/ml
[35] = Clearance in rat at 300 mg/kg, po administered via gavage by HPLC/MS analysis; assay type: ADME, organism-based; conditions: in vivo
[36] = tested on: Klebsiella pneumoniae; assay: Potentiation of meropenem-induced antibacterial activity against carbapenem-resistant Klebsiella pneumoniae assessed as meropenem MIC50 at 8 ug/ml by broth microdilution method (reference value: 32 ug/ml); assay type: functional
[37] = Cmax in rat at 1000 mg/kg, po administered via gavage by HPLC/MS analysis; assay type: ADME, organism-based; set-up: dose 1000 mg/kg, route oral; conditions: in vivo

## O=C(O)c1c(F)ccc2c1OB(O)[C@@H]1C[C@H]21 [XERUBORBACTAM]
[1]
  MIC50: 0.125 µg/mL
[2]
  Activity: -1.66 log10CFU
[3]
  clearance: 4.83 mL/min/kg
[4]
  MEC: 0.16 µg/mL
[5]
  AUC at 0.5 h: 35.2 µg·h/mL
[6]
  half-life: 1.25 h
[7]
  MEC: 2.5 µg/mL
[8]
  MIC90: 0.125 µg/mL
[9]
  IC50: > 100 µM
[10]
  IC50: 101 µM
[11]
  IC50: > 1000 µM
[12]
  MIC50: ≤ 0.015 µg/mL
[13]
  Activity: -0.88 log10CFU
[14]
  clearance: 7.83 mL/min/kg
[15]
  MIC90: > 32 µg/mL
[16]
  Ki: 0.00029 µM
[17]
  Cmax: 208 µg/mL
[18]
  Cmax: 28.8 µg/mL
[19]
  MIC50: 0.125 µg/mL
[20]
  MIC: 0.25 µg/mL
[21]
  CL/F: 18.5 mL/min/kg
[22]
  MIC90: 0.5 µg/mL
[23]
  MIC90: 0.5 µg/mL
[24]
  Ki: 0.008 µM
[25]
  MIC90: 2 µg/mL
[26]
  fraction unbound: 0.15
[27]
  AUC: 504 µg·h/mL
[28]
  MIC50: < 0.06 µg/mL
[29]
  IC50: 132 µM
[30]
  bioavailability: 53%
[31]
  MEC: 1.25 µg/mL
[32]
  MIC90: 8 µg/mL
[33]
  Activity: -1.15 log10CFU
[34]
  MEC: 0.3 µg/mL
[35]
  CL/F: 28.5 mL/min/kg
[36]
  MIC50: ≤ 0.06 µg/mL
[37]
  Cmax: 90.4 µg/mL
